# Experiments:
# Glycine max = assay: Greenhouse post-emergence herbicidal efficacy, % weed control; type: in vivo; conditions: for % control: Table 8, L-glufosinate ammonium 150, haloxyfop 50 g ai/ha
# From the text: (§1) This effectiveness of all treatments can be evaluated according to Colby's equation. In the Colby's equation given below, E is the expected efficacy of combination of L-glufosinate, salts, esters, or combinations thereof, and an herbicide of the phenoxypropionic herbicide class, • X is the observed efficacy of L-glufosinate, salts, esters, or combinations thereof and • Y is the observed efficacy of the herbicide of the phenoxypropionic herbicide class.
# (§2) Observed efficacy values i.e. X and Y are % weed control for L-glufosinate, salts, esters, or combinations thereof and an herbicide of the phenoxypropionic herbicide class. If observed efficacy of combination of L-glufosinate, salts, esters, or combinations thereof and the herbicide of the phenoxypropionic herbicide class is greater than its expected efficacy, then combination is determined to be synergistic. If observed efficacy is equal to or less than expected efficacy, then combination is determined to be non-synergistic.
# (§3) Methodology: Greenhouse trials were carried out to evaluate the efficacy of the combination of L-glufosinate ammonium and phenoxypropionic herbicides—haloxyfop, quizalofop-ethyl, quizalofop-P-tefuryl—on weeds Eleusine indica, Brachiaria decumbens, Spermacoce latifolia and Glycine max.
# (§4) The soil used was sandy clay loam-Sand: 68.0%; Silt: 8.0%; Clay: 24.0%.
# (§5) All treatments were in 4 replications per treatment with a spray volume of […].
# (§6) The expected efficacy of a combination of L-glufosinate and the other herbicides was calculated using the well-established Colby method. Any difference between the observed and “expected” efficacy could be attributed to synergy between the two compounds. (Colby, S. R., Weeds, 1967 (15), p. 20-22).
# Experiment was conducted to assess the efficacy herbicidal combination comprising L-glufosinate ammonium (glufosinate-p-ammonium) and haloxyfop to control the weed, Glycine max.
# The percentage efficacy was calculated after 3, 7, 14, 21, 28, 35 days of application (DAA). The target weed was Glycine max, and the concentration of the herbicide and the results are recorded in the table 8 below:
# Experiments were conducted to assess the efficacy of herbicidal combination comprising L-glufosinate ammonium (glufosinate-p-ammonium) and quizalofop-ethyl to control the weedy Glycine max.
# The percentage efficacy was calculated after 3, 28 and 35 days of applications (DAA). The target weed was Glycine max, and the concentration of the herbicide and the results are recorded in the table 9 below:
# Experiments were conducted to assess the efficacy of herbicidal combination comprising L-glufosinate ammonium (glufosinate-p-ammonium) and quizalofop-p-tefuryl to control the weedy Glycine max.
# The percentage efficacy was calculated after 3, 28 and 35 days of applications (DAA). The target weed was Glycine max, and the concentration of the herbicide and the results are recorded in the table 10 below.
# Brachiaria decumbens = assay: as above; type: in vivo
# From the text: as §1, §2, §3, §4, §5, §6
# Experiment was conducted to assess the efficacy herbicidal combination comprising L-glufosinate ammonium (glufosinate-p-ammonium) and haloxyfop to control the weed, Brachiaria decumbens.
# The percentage efficacy was calculated after 7, 14 days of application (DAA). The target weed was Brachiaria decumbens, and the concentration of the herbicide and the results are recorded in the table 1 below:
# Experiment was conducted to assess the efficacy herbicidal combination comprising L-glufosinate ammonium (glufosinate-p-ammonium) and quizalofop-ethyl to control the weed, Brachiaria decumbens.
# The percentage efficacy was calculated after 28 and 35 days of application (DAA). The target weed was Brachiaria decumbens, and the concentration of the herbicide and the results are recorded in the table 2 below:
# Experiment was conducted to assess the efficacy herbicidal combination comprising L-glufosinate ammonium (glufosinate-p-ammonium) and quizalofop-P-tefuryl to control the weed, Brachiaria decumbens.
# The percentage efficacy was calculated after 14, 21, 28, 35 days of application (DAA). The target weed was Brachiaria decumbens, and the concentration of the herbicide and the results are recorded in the table 3 below: […]
# Eleusine indica = assay: as above; type: in vivo; conditions: for Control %: Table 6, L-glufosinate ammonium 150, quizalofop-p-tefuryl 25 g/ha
# From the text: as §1, §2, §3, §4, §5, §6
# Experiment was conducted to assess the efficacy herbicidal combination comprising L-glufosinate ammonium (glufosinate-p-ammonium) and haloxyfop to control the weed, Eleusine indica.
# The percentage efficacy was calculated after 7 days of application (DAA). The target weed was Eleusine indica, and the concentration of the herbicide and the results are recorded in the table 4 below:
# Experiment was conducted to assess the efficacy herbicidal combination comprising L-glufosinate ammonium (glufosinate-p-ammonium) and quizalofop-ethyl to control the weed, Eleusine indica.
# The percentage efficacy was calculated after 21 days of application (DAA). The target weed was Eleusine indica, and the concentration of the herbicide and the results are recorded in the table 5 below:
# Experiment was conducted to assess the efficacy herbicidal combination comprising L-glufosinate ammonium (glufosinate-p-ammonium) and quizalofop-P-tefuryl to control the weed, Eleusine indica.
# The percentage efficacy was calculated after 21, 28, 35 days of application (DAA). The target weed was Eleusine indica, and the concentration of the herbicide and the results are recorded in the table 6 below: […]
# Spermacoce latifolia = assay: as above; type: in vivo; conditions: Table 7, L-glufosinate ammonium 150, haloxyfop 50 g/ha
# From the text: as §1, §2, §3, §4, §5, §6
# Experiment was conducted to assess the efficacy herbicidal combination comprising L-glufosinate ammonium (glufosinate-p-ammonium) and haloxyfop to control the weed, Spermacoce latifolia.
# The percentage efficacy was calculated after 7, 14, 21, 28, 35 days of application (DAA). The target weed was Spermacoce latifolia, and the concentration of the herbicide and the results are recorded in the table 7 below: […]
# [1] = system: Viola arvensis, Bromus spp., Lolium spp., Agropyron repens and Urtica urens; conditions: reported by Hoechst et al., 1991; cited from earlier work
# [2] = Table 9, 3 DAA, L-glufosinate ammonium 150, quizalofop-ethyl 25 g/ha
# [3] = Table 9, 28 DAA, L-glufosinate ammonium 150, quizalofop-ethyl 25 g/ha
# [4] = Table 9, 35 DAA, L-glufosinate ammonium 150, quizalofop-ethyl 25 g/ha
# [5] = Table 10, 3 DAA, L-glufosinate ammonium 150, quizalofop-p-tefuryl 25 g/h
# [6] = Table 10, 28 DAA, L-glufosinate ammonium 150, quizalofop-p-tefuryl 25 g/h
# [7] = Table 10, 35 DAA, L-glufosinate ammonium 150, quizalofop-p-tefuryl 25 g/h
# [8] = Table 1, 7 DAA, L-glufosinate ammonium 150, haloxyfop 50 g a.i./ha
# [9] = Table 1, 14 DAA, L-glufosinate ammonium 150, haloxyfop 50 g a.i./ha
# [10] = Table 2, 28 DAA, L-glufosinate ammonium 150, quizalofop-ethyl 25 g a.i./ha
# [11] = Table 2, 35 DAA, L-glufosinate ammonium 150, quizalofop-ethyl 25 g a.i./ha
# [12] = Table 3, 14 DAA, L-glufosinate ammonium 150, quizalofop-p-tefuryl 25 g/ha
# [13] = Table 3, 21 DAA, L-glufosinate ammonium 150, quizalofop-p-tefuryl 25 g/ha
# [14] = Table 3, 28 DAA, L-glufosinate ammonium 150, quizalofop-p-tefuryl 25 g/ha
# [15] = Table 3, 35 DAA, L-glufosinate ammonium 150, quizalofop-p-tefuryl 25 g/ha
# [16] = Table 4, 7 DAA, L-glufosinate ammonium 150, haloxyfop 50 g ai/ha
# [17] = Table 5, 21 DAA, L-glufosinate ammonium 150, quizalofop-ethyl 25 g ai/ha
SMILES,% control (Glycine max; 3 DAA) [%],% control (Glycine max; 7 DAA) [%],% control (Glycine max; 14 DAA) [%],% control (Glycine max; 21 DAA) [%],% control (Glycine max; 28 DAA) [%],% control (Glycine max; 35 DAA) [%],Control % (Glycine max; [2]) [%],Control % (Glycine max; [3]) [%],Control % (Glycine max; [4]) [%],Control % (Glycine max; [5]) [%],Control % (Glycine max; [6]) [%],Control % (Glycine max; [7]) [%],Control % (Brachiaria decumbens; [8]) [%],Control % (Brachiaria decumbens; [9]) [%],Control % (Brachiaria decumbens; [10]) [%],Control % (Brachiaria decumbens; [11]) [%],Control % (Brachiaria decumbens; [12]) [%],Control % (Brachiaria decumbens; [13]) [%],Control % (Brachiaria decumbens; [14]) [%],Control % (Brachiaria decumbens; [15]) [%],further results
"CP(=O)(O)CC[C@H](N)C(=O)O.N [L-glufosinate ammonium, ammonium (2S)-2-amino-4-(methylphosphinato)butyric acid]",15,53.3,71,66.7,56.7,41.7,50,40,40,50,60,55,50,79.3,60,55,75,70,60,55,% control (Eleusine indica; [16]): 50.7%; % control (Eleusine indica; [17]): 35%; Control % (Eleusine indica; 21 DAA): 25%; Control % (Eleusine indica; 28 DAA): 20%; Control % (Eleusine indica; 35 DAA): 18%; Control % (Spermacoce latifolia; 7 DAA): 31.7%; Control % (Spermacoce latifolia; 14 DAA): 81.7%; Control % (Spermacoce latifolia; 21 DAA): 83.3%; Control % (Spermacoce latifolia; 28 DAA): 83.3%; Control % (Spermacoce latifolia; 35 DAA): 83.3%
"CP(=O)(O)CCC(N)C(=O)O (racemic) [glufosinate, DL-homoalanin-4-yl(methyl)phosphinic acid]",,,,,,,,,,,,,,,,,,,,,"control of weed species [1]: either not combated, or only weakly combated"
"CC(Oc1ccc(Oc2ncc(C(F)(F)F)cc2Cl)cc1)C(=O)O (stereo not shown) [Haloxyfop, haloxyfop]",5,13.3,15,12.3,12.3,12.3,,,,,,,26.7,75.3,,,,,,,% control (Eleusine indica; [16]): 25%; Control % (Spermacoce latifolia; 7 DAA): 8%; Control % (Spermacoce latifolia; 14 DAA): 8.7%; Control % (Spermacoce latifolia; 21 DAA): 10%; Control % (Spermacoce latifolia; 28 DAA): 31%; Control % (Spermacoce latifolia; 35 DAA): 9.3%
C[C@@H](Oc1ccc(Oc2cnc3cc(Cl)ccc3n2)cc1)C(=O)OCC1CCCO1 (stereo partly shown) [quizalofop-p-tefuryl],,,,,,,,,,0,0,0,,,,,20,10,5,5,Control % (Eleusine indica; 21 DAA): 10%; Control % (Eleusine indica; 28 DAA): 5%; Control % (Eleusine indica; 35 DAA): 5%
CCOC(=O)C(C)Oc1ccc(Oc2cnc3cc(Cl)ccc3n2)cc1 (stereo not shown) [quizalofop-ethyl],,,,,,,0,0,0,,,,,,35,30,,,,,% control (Eleusine indica; [17]): 95%
